Measured values from paper PMC11672137, “High-Affinity Lectin Ligands Enable the Detection of Pathogenic Pseudomonas aeruginosa Biofilms: Implications for Diagnostics and Therapy” (JACS Au, 2024).

Tests used:
[1] = tested on: P. aeruginosa PAO-infected murine lung sections; assay: CLSM of lung sections of infected and uninfected mice; format: in vivo; details: after i.v. injection
Method: For more detailed insights into the localization of divalent LecA ligand 21 and the control Sulfo-Cyanine7, lung sections of infected and uninfected mice were prepared and analyzed by CLSM. […] Signals corresponding to 21 were localized in cellular accumulations around medium-sized blood vessels. Particle-shaped signals and signals clustered into larger dots were observed. […] Possibly, signals detected in lung sections stained with a divalent LecA imaging probe are due to complexes of membrane-bound LecA with 21. These particle-shaped complexes probably represent the divalent imaging probe 21 bound to bacterial cells. Additionally, it is possible that larger dots are attributed to accumulated bacteria in phagocytes such as neutrophils, monocytes, and dendritic cells. However, intracellular detection using the divalent LecA imaging probe 21 has not yet been analyzed and requires further experiments.
Figure 7 Confocal laser scanning microscopy analysis of P. aeruginosa PAO-infected murine lung sections using divalent LecA imaging probe 21. Sections of cryopreserved murine lungs infected with P. aeruginosa were prepared and analyzed by CLSM after intravenous injection of divalent LecA imaging probe 21 (A) or the control Sulfo-Cyanine7 free acid (B). Lung sections of uninfected animals were used as a control after i.v. injection of 21 (C) or control Sulfo-Cyanine7 free acid (D). Cell nuclei are shown in red (DAPI) and green signals correspond to 21 or Sulfo-Cyanine7 free acid, respectively. Green signals were detected only in infected lung sections after injection of divalent LecA ligand 21. Signals were located in cellular accumulations around medium-sized blood vessels. Scale bar for A and B = 100 μm and for C and D = […]. […]
Lung sections and ex vivo imaging of P. aeruginosa
Sections of 8 µm were made from the frozen lung lobes using a cryostat (Leica, Germany). The sections were mounted on adhesive slides, dried overnight at room temperature and mounted with a DAPI containing gel. Confocal imaging was performed on a Leica SP8 […]
system equipped with a super -continuum white light laser (WLL) and a multi - photon laser source (MP) through a water immersion objective (Leica HC FLUOTAR L 25x/1,0 with a motorized correction ring). Images (1024x1024 pixels) were acquired using the MP excitation of 720 nm and emission band ([…]) for detecting DAPI and the WLL at 730 nm excitation with an emission band 748 nm – 848 nm for Cyanine7 employing non-descanned or descanned HyD detectors, respectively. Further image analysis and image overlay was performed in ImageJ2 software.27 […]

[2] = tested on: P. aeruginosa PAO1 biofilm aggregates; assay: In vitro biofilm staining under static conditions (CLSM); format: cell-based, Pseudomonas aeruginosa; details: 10 μM probe
Method: The ability of LecA- and LecB-targeting probes to image P. aeruginosa biofilms was evaluated in vitro. P. aeruginosa PAO1, constitutively expressing mCherry from plasmid pMP7605,[56] was cultivated in microtiter plates under shaking conditions to form biofilm aggregates, as reported previously.[43] Fluorescein-carbohydrate conjugates were added to the bacterial culture to reach a final concentration of 10 μM and biofilms were analyzed by confocal laser scanning microscopy (CLSM) under static conditions (Figures 2 and S4). […] To our surprise, the intended negative control xyloside 8 also stained the P. aeruginosa biofilms (Figures 2C and S4). In all cases, the green signal originating from the fluorescein conjugates was not homogeneously spread over the entire structure of the biofilm aggregates, but a certain heterogeneity was observed across biofilm regions as bright spots. Further, the intensity of staining varied between replicates (see the Supporting Information for individual experiments). […] Instead, only a very faint green shadow was detected for 9 indicating its suitability as a negative control. Thus, the observed biofilm staining with imaging probes 2, 3, 6, 7 and also xyloside 8 was carbohydrate dependent and while 2, 3 and 6, 7 are ligands of LecA and LecB, respectively, the molecular mechanism of xyloside 8 remains elusive.
One representative image of stained aggregates is shown. […] Scale bar = 50 μm.
P. aeruginosa PAO1 expressing the red fluorescent protein mCherry (pMP7605)23 was selected for this study. For this, P. aeruginosa PAO1 (DSM 19880, Braunschweig, Germany) was transformed with the mCherry plasmid (pMP7605).23 Bacteria were stored at -80 °C. For experimental use, bacteria were streaked on lysogeny broth (LB) agar (1% tryptone, 1% NaCl, 0,5% yeast extract, 1.3% agar) containing 60 µg/mL gentamicin (Gm) and incubated at 37 °C overnight. For liquid cultures, bacterial colonies were transferred from LB agar to 10 mL LB (1% tryptone, 1% NaCl, 0,5% yeast extract) containing 60 µg/mL Gm and incubated at 37 °C and 180 rpm overnight. For exponential growth, 10 mL of LB containing 60 µg/mL Gm were inoculated with P. aeruginosa PAO1 mCherry (pMP7605)23 using an overnight liquid culture […]
In vitro biofilm staining under static conditions
Biofilm staining experiments were performed in analogy to Wagner et al. with P. aeruginosa PAO1 pMP7605 (Figure S4).23,24 Bacterial overnight cultures were inoculated from single colonies in 5 mL LB supplemented with gentamicin (120 µg/mL) and grown at 37 °C and 180 rpm. The bacterial overnight cultures were then diluted to OD600 of 0.02 with LB and 500 µL of culture per well were transferred to 24-well plate (24CG, Art. No. 5231 or 24FC, Art. No. 3231). The biofilm was grown under shaking conditions (180 rpm) at 37 °C for 20–24 h. Biofilm aggregates were visualized using a confocal laser scanning microscope (Leica TCS Sp8 CLSM) using a 25× numerical-aperture water objective. Z-stacks (463 x 463 μm) were recorded every 2 μm for mCherry (ex.: 561 nm, red) and for fluorescein containing imaging compounds (ex.: 488 nm, green). […]
Maximum Intensity Projections (contrast range automatically adjusted by Imaris). Only one staining experiment was carried out for imaging probes 4 and S26, all other fluorescein conjugates were analyzed in at least three independent experiments.

LecB (PAO1) = molecular target: T1, LecB (PAO1) (Pseudomonas aeruginosa, UniProt Q9HYN5); assay: Direct binding assay based on fluorescence polarization, titration with LecB
T1 construct: made in house
Method: Averages and standard deviations were determined from at least three independent titrations of technical triplicates each.
(§1) Direct binding affinity determination of LecA and LecB imaging probes was performed with direct titration of protein and imaging probes in TBS/Ca2+ buffer. Protein dilution series was prepared in 96 well plates and 10 µL of each dilution in triplicates were mixed with 10 µL of fluorescent compound (20 nM) in 384-well microtiter plates (Greiner Bio-One, Germany, cat no 781900). The plates were centrifuged (1 min, 500 g), sealed and incubated for 2 h in dark wet chamber under gentle shaking. Fluorescence was measured on a PheraStar FS plate reader (BMG Labtech GmbH, Germany) with excitation filters at 485 nm and emission filters at 535 nm. The data were analysed with MARS Data Analysis Software (BMG Labtech GmbH, Germany) to calculate Kd values.

LecA = molecular target: T2, LecA (Pseudomonas aeruginosa, UniProt Q05097); assay: Direct binding assay based on fluorescence polarization, titration with LecA; details: negative controls
T2 construct: made in house
Method: The binding affinities of imaging probes 2–4 for LecA were determined using a direct binding assay based on fluorescence polarization (FP).[47]
(A, C) Monovalent LecA imaging probes 2–4 based on phenyl β-D-galactoside (1) were titrated with LecA. […] (E) Xyloside-fluorescein conjugate (8) and azido fluorescein (9) served as negative controls in titrations with LecA and LecB, respectively. Averages and standard deviations were determined from at least three independent titrations of technical triplicates each.
as §1

[3] = tested on: P. aeruginosa PAO (DSM 1707) lung infection; assay: Optical in vivo imaging and ex situ organ analysis in acute P. aeruginosa airway infection model; parameters: species or system mice
Method: Encouraged by the high affinity of the imaging probes and their ability to stain P. aeruginosa biofilms in vitro, we further investigated the compounds in vivo using an acute P. aeruginosa airway infection model in mice. Intratracheal administration of P. aeruginosa PAO (DSM 1707) results in a local infection that is mainly restricted to the lungs. With the infection dose of 2 × 10^6 cfu/50 μL chosen here, the number of bacteria peaks at 6 h after infection before the host immune system clears the bacteria.[70]
Then, imaging probes, divalent LecA-targeting probe 21, LecB-targeting probe 22 and the control sulfo-Cy7 (free acid), were administered intravenously to the tail vein 2 h post infection. […] This accumulation in the lungs was then confirmed by a subsequent ex vivo analysis of the organs.
Figure 6 Optical in vivo imaging in mice and ex situ analysis of organs with P. aeruginosa PAO acute lung infection. In vivo imaging of mice with P. aeruginosa intratracheal infection (right) or uninfected control mice (left) after intravenous administration of imaging probes 2 h post infection: (A) 50 nmol/20 g divalent LecA probe 21 or (B) 100 nmol/20 g LecB probe 22. Then, explanted lungs were analyzed for fluorescence intensity, shown as a false color scale in (C) divalent LecA probe 21 (left: uninfected, right: infected) and (D) LecB probe 22 (left: uninfected; middle: uninfected control without dye; right: infected). (E) Quantification of the average radiant efficiency of the divalent LecA ligand 21 and the control sulfo-Cy7 free acid in the lungs of uninfected and infected mice. Duplicate data points and the mean are depicted. (F) Average radiant efficiency was quantified for the LecB imaging probe 22 in lungs of infected and uninfected mice. In addition, (G) further mouse organs were explanted after i.v. injection of 21 (50 nmol/20 g) or control sulfo-Cy7 free acid (50 nmol/20 g) and imaged. Organs of uninfected (left), infected (right) mice, and uninfected mice without any dye (upper middle on the sulfo-Cy7 free acid rows) were compared. Fluorescence intensities are shown as false color pictures. […]
Lung infection model and in vivo imaging of P. aeruginosa
C57BL/6J and albino (Tyrc2J) C57BL/6 mice were bred and housed at the Central Animal Facility, Hannover Medical School, Germany. Animal experiments were performed with permission number: 33.9-42502-04-16/2072 from the Lower Saxony State Office for Consumer Protection and Food Safety (LAVES), Germany. Mice were anesthetized with 3% isoflurane (CP Pharma) and infected intratracheally with 2x10^6 cfu/50 µL of P. aeruginosa PAO (DSM1707, Braunschweig, Germany) as described previously.26
50 – 100 nmol sulfo-Cyanine7-compound (divalent LecA probe 21; LecB probe 22; control sulfoCy7 free acid, CAS no.: 2104632-30-4, Lumiprobe; control sulfoCy7 azide, 20, Lumiprobe) per 20 g mouse was injected intravenously 2 h after infection. Optical imaging was performed 4 – 7 h after compound administration. Mice were anesthetized with 3% isoflurane […]
an in vivo imaging system (IVIS SpectrumCT, PerkinElmer). Subsequently mice were euthanized and organs were imaged (675/760 nm) ex situ individually. To enhance Cyanine7 specific fluorescent signal spectral unmixing was performed on in vivo images using LivingImage 4.7 (PerkinElmer). […]

T1 sequence (Q9HYN5 entry or part of it): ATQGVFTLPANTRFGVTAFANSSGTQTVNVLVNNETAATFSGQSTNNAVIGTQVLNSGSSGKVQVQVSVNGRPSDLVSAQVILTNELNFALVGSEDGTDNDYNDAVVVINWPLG
T2 sequence (Q05097 whole entry): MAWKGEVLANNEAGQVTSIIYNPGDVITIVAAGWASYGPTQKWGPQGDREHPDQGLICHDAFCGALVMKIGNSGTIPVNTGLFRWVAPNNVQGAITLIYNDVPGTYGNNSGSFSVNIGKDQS

C[N+]1=C(C=CC2=CC(=CC=C3N(CCCCCC(=O)O)c4ccc(S(=O)(=O)[O-])cc4C3(C)C)CCC2)C(C)(C)c2cc(S(=O)(=O)[O-])ccc21.[Na+] [Sulfo-Cyanine7, reference compound]
Cyanine7 signals in lung sections, infected mice [1]: no signals were detected | Cyanine7 signals in lung sections, uninfected mice [1]: no signals were detected

C[C@@H]1O[C@H](CNS(=O)(=O)c2ccc(-c3cn(CCOCCOCCOCCNC(=S)Nc4ccc5c(c4)C(=O)OC54c5ccc(O)cc5Oc5cc(O)ccc54)nn3)s2)[C@@H](O)[C@H](O)[C@@H]1O [compound 6]
Staining of biofilm aggregates [2]: accumulated at the biofilm aggregates, although with weaker staining | Kd (LecB (PAO1)): 1.65 ± 0.14 µM

C[C@@H]1O[C@H](CNS(=O)(=O)c2ccc(OCc3cn(CCOCCOCCOCCNC(=S)Nc4ccc5c(c4)C(=O)OC54c5ccc(O)cc5Oc5cc(O)ccc54)nn3)cc2)[C@@H](O)[C@H](O)[C@@H]1O [compound 7]
Staining of biofilm aggregates [2]: accumulated at the biofilm aggregates, although with weaker staining | Kd (LecB (PAO1)): 0.84 ± 0.11 µM

O=C1OC2(c3ccc(O)cc3Oc3cc(O)ccc32)c2ccc(NC(=S)NCCOCCOCCOCCn3cc(CNc4ccc(S[C@@H]5OC[C@@H](O)[C@H](O)[C@H]5O)cc4)nn3)cc21 [compound 8]
Staining of biofilm aggregates [2]: also stained | Binding to LecA in direct FP titration (LecA): inability to bind | Binding to LecB in direct FP titration (LecB (PAO1); negative control): inability to bind

CN1/C(=C/C=C2C=C(/C=C/C3=[N+](CCCCCC(=O)NCCCn4cc(CCN(Cc5ccc(NC(=O)CCc6ccc(O[C@@H]7O[C@H](CO)[C@H](O)[C@H](O)[C@H]7O)cc6)cc5)Cc5ccc(NC(=O)CCc6ccc(O[C@@H]7O[C@H](CO)[C@H](O)[C@H](O)[C@H]7O)cc6)cc5)nn4)c4ccc(S(=O)(=O)[O-])cc4C3(C)C)CCC/2)C(C)(C)c2cc(S(=O)(=O)O)ccc21 [compound 21]
Average fluorescence radiant efficiency of explanted lungs ([3]; ex vivo analysis of organs, infected vs uninfected mice): elevated compared with uninfected mice | Cyanine7 signal in lung area, optical in vivo imaging ([3]; i.v. 2 h post infection, infected vs uninfected mice, 21 50 nmol/20 g, 22 100 nmol/20 g): elevated Cyanine7 signals in the area of the lung of infected mice compared to uninfected mice | Fluorescence ex vivo in kidneys ([3]; infected vs uninfected animals): moderately increased signals compared to uninfected animals | Fluorescence ex vivo in lungs of uninfected animals compared to control sulfo-Cyanine7 (free acid) ([3]; uninfected mice, ex vivo quantification): a certain accumulation in the lungs of uninfected animals | Cyanine7 signals in lung sections, infected mice [1]: Cyanine7 signals were exemplarily visible | Cyanine7 signals in lung sections, uninfected mice [1]: no signals were detected
